# Source: US12344603B2 (Genentech, Inc., priority 2020, dated 2025)
# Structures can show the parent of a compound that is named as a salt.
# Target: IRE1α (Homo sapiens (Human), UniProt O75460, D688N)
# Experiment: IRE1α TR-FRET competition binding assay (IRE1α HTRF)
# Conditions: TR-FRET competition binding to kinase domain of IRE1α
# Description: IRE1α TR-FRET Competition Binding Assay. The affinity of compound binding to the kinase domain of IRE1α was determined using a time-resolved fluorescence resonance energy transfer (TR-FRET) competition assay.
# The purified protein (final concentration 0.25 nM) was pre-incubated with anti-His Europium labeled antibody (Life Technologies PV5596, final concentration 2 nM) for one hour at 4° C. in TR-FRET Assay Buffer (50 mM HEPES, pH 7.5, 10 mM MgCl2, 0.083 mM Brij 35, 1 mM DTT, and 0.1% bovine gamma globulin) prior to addition to test compounds. An Alexa fluor 647-labeled probe based on an ATP competitive inhibitor was added to a final concentration of 2 nM. Reactions were carried out for one hour at room temperature in a final volume of 20 μL in 384 well white ProxiPlates (Perkin Elmer 6008289). Binding of the probe to the IRE1α protein was detected in an Envision instrument (PerkinElmer) equipped with a TRF laser option and a LANCE/Delfia Dual/Bias D400/D630 mirror (Ex 347 nm, 1st Em 665 nm, 2nd Em 615 nm).
# Chain of IRE1α (O75460 547-977 D688N): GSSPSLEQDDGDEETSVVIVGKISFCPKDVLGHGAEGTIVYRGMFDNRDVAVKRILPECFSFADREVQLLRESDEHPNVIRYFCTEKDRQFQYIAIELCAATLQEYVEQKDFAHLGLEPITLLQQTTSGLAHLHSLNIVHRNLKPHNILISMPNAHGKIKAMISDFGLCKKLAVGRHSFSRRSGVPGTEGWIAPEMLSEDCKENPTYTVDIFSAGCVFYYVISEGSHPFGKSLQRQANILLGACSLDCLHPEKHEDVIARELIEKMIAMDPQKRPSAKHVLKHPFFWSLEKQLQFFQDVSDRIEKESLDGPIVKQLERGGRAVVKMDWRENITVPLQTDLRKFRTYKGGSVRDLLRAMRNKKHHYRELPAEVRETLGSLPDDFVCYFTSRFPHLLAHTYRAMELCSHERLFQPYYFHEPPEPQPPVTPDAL
row,IC50,SMILES
1,0.26 nM,"CC(C)n1c(=O)c(-c2ccc(NS(=O)(=O)c3ccccc3OC(F)(F)F)nc2)cc2cnc(N[C@H]3CC[C@H](N(C)C)CC3)nc21 [Compound 150, N-(5-(2-(((1r,4r)-4-(Dimethylamino)cyclohexyl)amino)-8-isopropyl-7-oxo-7,8-dihydropyrido[2,3-d]pyrimidin-6-yl)pyridin-2-yl)-2-(trifluoromethoxy)benzenesulfonamide]"
2,5 nM,"CCn1c(=O)c(-c2ccc(NS(=O)(=O)CCC(F)(F)F)c(F)c2F)cc2cnc(N[C@@H]3CNC[C@@H](F)C3)nc21 [Compound 14, N-(4-(8-Ethyl-2-(((3S,5S)-5-fluoropiperidin-3-yl)amino)-7-oxo-7,8-dihydropyrido[2,3-d]pyrimidin-6-yl)-2,3-difluorophenyl)-3,3,3-trifluoropropane-1-sulfonamide]"
3,0.22 nM,"CC(C)n1c(=O)c(-c2cc(F)c(NS(=O)(=O)Cc3ccccc3)c(F)c2F)cc2cnc(N[C@@H]3CNC[C@@](C)(F)C3)nc21 [Compound 27, 1-Phenyl-N-(2,3,6-trifluoro-4-(2-(((3S,5S)-5-fluoro-5-methylpiperidin-3-yl)amino)-8-isopropyl-7-oxo-7,8-dihydropyrido[2,3-d]pyrimidin-6-yl)phenyl)methanesulfonamide]"
4,0.68 nM,"CCn1c(=O)c(-c2ccc(NS(=O)(=O)Cc3ccccc3)c(F)c2F)cc2cnc(N[C@H]3CCCNC3)nc21 [Compound 3, (S)—N-(4-(8-Ethyl-7-oxo-2-(piperidin-3-ylamino)-7,8-dihydropyrido[2,3-d]pyrimidin-6-yl)-2,3-difluorophenyl)-1-phenylmethanesulfonamide]"
5,0.25 nM,"CC(C)n1c(=O)c(-c2ccc(NS(=O)(=O)CCC(F)(F)F)c(F)c2)cc2cnc(N[C@H]3CC[C@H](N4CCCC4)CC3)nc21 [Compound 199, 3,3,3-Trifluoro-N-(2-fluoro-4-(8-isopropyl-7-oxo-2-(((1,4-trans)-4-(pyrrolidin-1-yl)cyclohexyl)amino)-7,8-dihydropyrido[2,3-d]pyrimidin-6-yl)phenyl)propane-1-sulfonamide]"
6,0.47 nM,"CC(C)n1c(=O)c(-c2cc(F)c(NS(=O)(=O)CCC(F)(F)F)c(F)c2)nc2cnc(N[C@@H]3CNC[C@@H](F)C3)nc21 [Compound 46, N-(2,6-Difluoro-4-(2-(((3S,5S)-5-fluoropiperidin-3-yl)amino)-8-isopropyl-7-oxo-7,8-dihydropteridin-6-yl)phenyl)-3,3,3-trifluoropropane-1-sulfonamide]"
7,0.18 nM,"CC(C)n1c(=O)c(-c2ccc(NS(=O)(=O)c3ccccc3)nc2)cc2cnc(N[C@H]3CC[C@H](N(C)CCF)CC3)nc21 [Compound 144, N-(5-(2-(((1r,4r)-4-((2-Fluoroethyl)(methyl)amino)cyclohexyl)amino)-8-isopropyl-7-oxo-7,8-dihydropyrido[2,3-d]pyrimidin-6-yl)pyridin-2-yl)benzenesulfonamide]"
8,0.3 nM,"CC(C)n1c(=O)c(-c2ccc(NS(=O)(=O)Cc3ccccc3F)nc2)nc2cnc(N[C@@H]3CNC[C@@H](F)C3)nc21 [Example 237, 1-(2-Fluorophenyl)-N-[5-[2-[[(3S,5S)-5-fluoro-3-piperidyl]amino]-8-isopropyl-7-oxo-pteridin-6-yl]-2-pyridyl]methanesulfonamide]"
9,0.3 nM,"CC(C)n1c(=O)c(-c2ccc(NS(=O)(=O)CCC(C)(F)F)c(F)c2)cc2cnc(N[C@H]3CC[C@H](N(C)C)CC3)nc21 [Example 229, N-(4-(2-(((1r,4r)-4-(Dimethylamino)cyclohexyl)amino)-8-isopropyl-7-oxo-7,8-dihydropyrido[2,3-d]pyrimidin-6-yl)-2-fluorophenyl)-3,3-difluorobutane-1-sulfonamide]"
10,0.4 nM,"CCn1c(=O)c(-c2cc(F)c(NS(=O)(=O)Cc3cccc(C(F)(F)F)c3)c(F)c2F)cc2cnc(N[C@@H]3CNC[C@@H](F)C3)nc21 [Compound 39, N-(4-(8-Ethyl-2-(((3S,5S)-5-fluoropiperidin-3-yl)amino)-7-oxo-7,8-dihydropyrido[2,3-d]pyrimidin-6-yl)-2,3,6-trifluorophenyl)-1-(3-(trifluoromethyl)phenyl)methanesulfonamide]"
11,0.2 nM,"CC(C)n1c(=O)c(-c2ccc(NS(=O)(=O)CC3CC4(CCC4)C3)c(F)c2)nc2cnc(N[C@H]3CC[C@H](N(C)C)CC3)nc21 [Example 260, N-[4-[2-[[4-(Dimethylamino)cyclohexyl]amino]-8-isopropyl-7-oxo-pteridin-6-yl]-2-fluoro-phenyl]-1-spiro[3.3]heptan-2-yl-methanesulfonamide]"
12,1.3 nM,"CC(C)n1c(=O)c(-c2cnc(NS(=O)(=O)CCC(F)(F)F)nc2)cc2cnc(N[C@H]3CC[C@H](N(C)C)CC3)nc21 [Example 233, N-(5-(2-(((1r,4r)-4-(Dimethylamino)cyclohexyl)amino)-8-isopropyl-7-oxo-7,8-dihydropyrido[2,3-d]pyrimidin-6-yl)pyrimidin-2-yl)-3,3,3-trifluoropropane-1-sulfonamide]"
13,0.87 nM,"CC(C)n1c(=O)c(-c2ccc(NS(=O)(=O)CCN3CC(F)(F)C3)c(F)c2)nc2cnc(N[C@H]3CC[C@H](N(C)C)CC3)nc21 [Compound 182, 2-(3,3-Difluoroazetidin-1-yl)-N-(4-(2-(((1r,4r)-4-(dimethylamino)cyclohexyl)amino)-8-isopropyl-7-oxo-7,8-dihydropteridin-6-yl)-2-fluorophenyl)ethane-1-sulfonamide]"
14,0.13 nM,"CC(C)n1c(=O)c(-c2ccc(NS(=O)(=O)CC3CCCC3)c(F)c2)cc2cnc(N[C@H]3CC[C@H](N(C)C)CC3)nc21 [Compound 109, 1-Cyclopentyl-N-(4-(2-(((1r,4r)-4-(dimethylamino)cyclohexyl)amino)-8-isopropyl-7-oxo-7,8-dihydropyrido[2,3-d]pyrimidin-6-yl)-2-fluorophenyl)methanesulfonamide]"
15,0.2 nM,"CC(C)n1c(=O)c(-c2cc(F)c(NS(=O)(=O)CC3CC(F)(F)C3)c(F)c2)nc2cnc(N[C@H]3CC[C@H](N(C)C)CC3)nc21 [Example 249, 1-(3,3-Difluorocyclobutyl)-N-[4-[2-[[4-(dimethylamino)cyclohexyl]amino]-8-isopropyl-7-oxo-pteridin-6-yl]-2,6-difluoro-phenyl]methanesulfonamide]"
16,0.2 nM,"CC(C)n1c(=O)c(-c2ccc(NS(=O)(=O)CC3C(F)(F)C34CCC4)c(F)c2)nc2cnc(N[C@H]3CC[C@H](N(C)C)CC3)nc21 (stereo partly shown) [Example 257, 1-(2,2-Difluorospiro[2.3]hexan-1-yl)-N-[4-[2-[[4-(dimethylamino)cyclohexyl]amino]-8-isopropyl-7-oxo-pteridin-6-yl]-2-fluoro-phenyl]methanesulfonamide]"
17,0.23 nM,"CC(C)n1c(=O)c(-c2cc(F)c(NS(=O)(=O)CCC(F)(F)F)c(F)c2)nc2cnc(N[C@@H]3CC[C@@H](N(C)C)[C@H](F)C3)nc21 (stereo in doubt) [Compound 168B, N-(4-(2-((4-(Dimethylamino)-3-fluorocyclohexyl)amino)-8-isopropyl-7-oxo-7,8-dihydropteridin-6-yl)-2,6-difluorophenyl)-3,3,3-trifluoropropane-1-sulfonamide]"
18,0.5 nM,"CC(C)n1c(=O)c(-c2ccc(NS(=O)(=O)Cc3ccccc3)nc2)nc2cnc(N[C@@H]3CNC[C@@H](F)C3)nc21 [Example 236, N-[5-[2-[[(3S,5S)-5-fluoro-3-piperidyl]amino]-8-isopropyl-7-oxo-pteridin-6-yl]-2-pyridyl]-1-phenyl-methanesulfonamide]"
19,0.12 nM,"COCCN(C)[C@H]1CC[C@H](Nc2ncc3cc(-c4cc(F)c(NS(=O)(=O)Cc5ccc(F)cc5)c(F)c4)c(=O)n(C(C)C)c3n2)CC1 [Compound 122, N-(2,6-Difluoro-4-(8-isopropyl-2-(((1r,4r)-4-((2-methoxyethyl)(methyl)amino)cyclohexyl)amino)-7-oxo-7,8-dihydropyrido[2,3-d]pyrimidin-6-yl)phenyl)-1-(4-fluorophenyl)methanesulfonamide]"
20,0.22 nM,"Cc1ccc(CS(=O)(=O)Nc2c(F)cc(-c3cc4cnc(N[C@H]5CC[C@H](N(C)C)CC5)nc4n(C(C)C)c3=O)c(F)c2F)c(C#N)c1 [Compound 113, 1-(2-Cyano-4-methylphenyl)-N-(4-(2-(((1r,4r)-4-(dimethylamino)cyclohexyl)amino)-8-isopropyl-7-oxo-7,8-dihydropyrido[2,3-d]pyrimidin-6-yl)-2,3,6-trifluorophenyl)methanesulfonamide]"
21,23 nM,"CC(C)n1c(=O)c(-c2ccc(NS(=O)(=O)CCC(F)(F)F)c(F)c2)cc2cnc(N[C@H]3CCC[C@@H](N)C3)nc21 [Compound 108, N-(4-(2-(((1S,3R)-3-Aminocyclohexyl)amino)-8-isopropyl-7-oxo-7,8-dihydropyrido[2,3-d]pyrimidin-6-yl)-2-fluorophenyl)-3,3,3-trifluoropropane-1-sulfonamide hydrochloride]"
22,0.27 nM,"COc1nc(NS(=O)(=O)c2ccccc2Cl)ccc1-c1nc2cnc(N[C@H]3CC[C@H](N(C)C)CC3)nc2n(C(C)C)c1=O [Compound 173, 2-Chloro-N-(5-(2-(((1r,4r)-4-(dimethylamino)cyclohexyl)amino)-8-isopropyl-7-oxo-7,8-dihydropteridin-6-yl)-6-methoxypyridin-2-yl)benzenesulfonamide]"
